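Results reflect a 48-hour exposure of cells in 96-well plates to compound at five concentrations. GI50: concentration for 50% inhibition of growth. At the TGI there is no net growth.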
Legend:
Experiment in all cases: DTP human tumour cell line panel, 48 h
HS 578T breast = system: HS 578T breast
NCI-H460 lung = system: NCI-H460 lung
TK-10 renal = system: TK-10 renal
HOP-92 NSCLC = system: HOP-92 NSCLC
UACC-257 melanoma = system: UACC-257 melanoma
SN12C renal = system: SN12C renal
SK-MEL-28 melanoma = system: SK-MEL-28 melanoma
SNB-75 CNS = system: SNB-75 CNS
SR leukemia = system: SR leukemia
SK-MEL-5 melanoma = system: SK-MEL-5 melanoma
MCF7 breast = system: MCF7 breast
M14 melanoma = system: M14 melanoma
SK-MEL-2 melanoma = system: SK-MEL-2 melanoma
SF-539 CNS = system: SF-539 CNS
OVCAR-8 ovarian = system: OVCAR-8 ovarian
OVCAR-5 ovarian = system: OVCAR-5 ovarian
T-47D breast = system: T-47D breast
HL-60(TB) leukemia = system: HL-60(TB) leukemia
CAKI-1 renal = system: CAKI-1 renal
HCC-2998 colon = system: HCC-2998 colon
MDA-MB-435 = system: MDA-MB-435
SF-268 CNS = system: SF-268 CNS
NCI-H226 lung = system: NCI-H226 lung
U251 CNS = system: U251 CNS
RPMI-8226 leukemia = system: RPMI-8226 leukemia
EKVX NSCLC = system: EKVX NSCLC
UO-31 renal = system: UO-31 renal
PC-3 prostate = system: PC-3 prostate
786-0 renal = system: 786-0 renal
COLO 205 colon = system: COLO 205 colon
MDA-MB-468 breast = system: MDA-MB-468 breast
MDA-MB-231 breast = system: MDA-MB-231 breast
ACHN renal = system: ACHN renal
MALME-3M melanoma = system: MALME-3M melanoma
HT29 colon = system: HT29 colon
NCI-H23 lung = system: NCI-H23 lung
K-562 leukemia = system: K-562 leukemia
DU-145 prostate = system: DU-145 prostate
OVCAR-4 ovarian = system: OVCAR-4 ovarian
HCT-15 colon = system: HCT-15 colon
KM12 colon = system: KM12 colon
BT-549 breast = system: BT-549 breast
IGROV1 ovarian = system: IGROV1 ovarian
SK-OV-3 ovarian = system: SK-OV-3 ovarian
HCT-116 colon = system: HCT-116 colon
A549 NSCLC = system: A549 NSCLC
HOP-62 NSCLC = system: HOP-62 NSCLC
CCRF-CEM leukemia = system: CCRF-CEM leukemia
UACC-62 melanoma = system: UACC-62 melanoma
RXF 393 renal = system: RXF 393 renal
NCI/ADR-RES ovarian = system: NCI/ADR-RES ovarian
NCI-H522 lung = system: NCI-H522 lung
OVCAR-3 ovarian = system: OVCAR-3 ovarian
LOX IMVI melanoma = system: LOX IMVI melanoma
A498 renal = system: A498 renal
SW-620 colon = system: SW-620 colon
SF-295 CNS = system: SF-295 CNS
SNB-19 CNS = system: SNB-19 CNS
MOLT-4 leukemia = system: MOLT-4 leukemia

## Cc1ccc(C(=O)NN2C(=O)/C(=C/C=C/c3ccc([N+](=O)[O-])o3)SC2=S)cc1
HS 578T breast
  GI50: 1.86 µM
  TGI: 6.54 µM
NCI-H460 lung
  GI50: 0.399 µM
  TGI: 1.57 µM
TK-10 renal
  GI50: 1.68 µM
  TGI: 3.58 µM
HOP-92 NSCLC
  GI50: 0.245 µM
  TGI: 0.893 µM
UACC-257 melanoma
  GI50: 1.67 µM
  TGI: 3.55 µM
SN12C renal
  GI50: 0.207 µM
  TGI: 0.535 µM
SK-MEL-28 melanoma
  GI50: 1.09 µM
  TGI: 2.31 µM
SNB-75 CNS
  GI50: 1.3 µM
  TGI: 3.17 µM
SR leukemia
  GI50: 0.0468 µM
  TGI: > 100 µM
SK-MEL-5 melanoma
  GI50: 0.337 µM
  TGI: 1.24 µM
MCF7 breast
  GI50: 0.413 µM
  TGI: 1.89 µM
M14 melanoma
  GI50: 0.202 µM
  TGI: 0.436 µM
SK-MEL-2 melanoma
  GI50: 0.283 µM
  TGI: 0.904 µM
SF-539 CNS
  GI50: 0.251 µM
  TGI: 0.718 µM
OVCAR-8 ovarian
  GI50: 0.292 µM
  TGI: 1.02 µM
OVCAR-5 ovarian
  GI50: 1.43 µM
  TGI: 2.79 µM
T-47D breast
  GI50: 1.73 µM
  TGI: 3.48 µM
HL-60(TB) leukemia
  GI50: 1.88 µM
  TGI: 10.5 µM
CAKI-1 renal
  GI50: 0.911 µM
  TGI: 2.19 µM
HCC-2998 colon
  GI50: 0.486 µM
  TGI: 1.72 µM
MDA-MB-435
  GI50: 0.267 µM
  TGI: 0.8 µM
SF-268 CNS
  GI50: 1.96 µM
  TGI: 4.82 µM
NCI-H226 lung
  GI50: 0.509 µM
  TGI: 1.24 µM
U251 CNS
  GI50: 0.701 µM
  TGI: 1.97 µM
RPMI-8226 leukemia
  GI50: 0.267 µM
  TGI: 1.17 µM
EKVX NSCLC
  GI50: 0.543 µM
  TGI: 1.85 µM
UO-31 renal
  GI50: 1.21 µM
  TGI: 2.45 µM
PC-3 prostate
  GI50: 1.14 µM
  TGI: 3 µM
786-0 renal
  GI50: 0.451 µM
  TGI: 1.62 µM
COLO 205 colon
  GI50: 0.348 µM
  TGI: 1.07 µM
MDA-MB-468 breast
  GI50: 1.5 µM
  TGI: 3.12 µM
MDA-MB-231 breast
  GI50: 0.185 µM
  TGI: 0.373 µM
ACHN renal
  GI50: 0.684 µM
  TGI: 1.86 µM
MALME-3M melanoma
  GI50: 0.177 µM
  TGI: 0.378 µM
HT29 colon
  GI50: 0.222 µM
  TGI: 0.542 µM
NCI-H23 lung
  GI50: 0.337 µM
  TGI: 1.17 µM
K-562 leukemia
  GI50: 0.188 µM
  TGI: 3.48 µM
DU-145 prostate
  GI50: 1.5 µM
  TGI: 2.92 µM
OVCAR-4 ovarian
  GI50: 1.6 µM
  TGI: 3.1 µM
HCT-15 colon
  GI50: 0.125 µM
  TGI: 0.295 µM
KM12 colon
  GI50: 1.16 µM
  TGI: 4.49 µM
BT-549 breast
  GI50: 0.218 µM
  TGI: 0.705 µM
IGROV1 ovarian
  GI50: 0.811 µM
  TGI: 2.11 µM
SK-OV-3 ovarian
  GI50: 1.77 µM
  TGI: 3.35 µM
HCT-116 colon
  GI50: 0.139 µM
  TGI: 0.29 µM
A549 NSCLC
  GI50: 2.18 µM
  TGI: 5.9 µM
HOP-62 NSCLC
  GI50: 1.6 µM
  TGI: 3.12 µM
CCRF-CEM leukemia
  GI50: 0.238 µM
  TGI: 0.826 µM
UACC-62 melanoma
  GI50: 0.378 µM
  TGI: 1.21 µM
RXF 393 renal
  GI50: 0.789 µM
  TGI: 2.14 µM
NCI/ADR-RES ovarian
  GI50: 1.22 µM
  TGI: 2.88 µM
NCI-H522 lung
  GI50: 0.185 µM
  TGI: 0.363 µM
OVCAR-3 ovarian
  GI50: 0.752 µM
  TGI: 2.63 µM
LOX IMVI melanoma
  GI50: 0.179 µM
  TGI: 0.352 µM
A498 renal
  GI50: 9.16 µM
  TGI: 22.9 µM
SW-620 colon
  GI50: 0.181 µM
  TGI: 0.389 µM
SF-295 CNS
  GI50: 1.76 µM
  TGI: 3.48 µM
SNB-19 CNS
  GI50: 1.61 µM
  TGI: 3.01 µM
MOLT-4 leukemia
  GI50: 0.294 µM
  TGI: 2.67 µM
